# Results as given in US9205137B2, “Maturation of gastrointestinal tract” (ANARA AB, priority 2010, dated 2015).
# B1: trypsin (protein, UniProt P00760 24-246, looked up)
# Serine protease 1: IVGGYTCGANTVPYQVSLNSGYHFCGGSLINSQWVVSAAHCYKSGIQVRLGEDNINVVEGNEQFISASKSIVHPSYNSNTLNNDIMLIKLKSAASLNSRVASISLPTSCASAGTQCLISGWGNTKSSGTSYPDVLKCLKAPILSDSSCKSAYPGQITSNMFCAGYLEGGKDSCQGDSGGPVVCSGKLQGIVSWGSGCAQKNKPGVYTKVCNYVSWIKQTIASN
# notes: protease that breaks down proteins at the basic amino acids
# B2: papain (protein, UniProt P00784 134-345, looked up)
# Papain: IPEYVDWRQKGAVTPVKNQGSCGSCWAFSAVVTIEGIIKIRTGNLNEYSEQELLDCDRRSYGCNGGYPWSALQLVAQYGIHYRNTYPYEGVQRYCRSREKGPYAAKTDGVRQVQPYNEGALLYSIANQPVSVVLEAAGKDFQLYRGGIFVGPCGNKVDHAVAAVGYGPNYILIKNSWGTGWGENGYIRIKRGTGNSYGVCGLYTSSFYPVKN
# notes: enzyme from papaya fruit (papain)
# Columns and labels:
# 14-d-old rat pups [1] = assay: Morphometry of mature enterocytes along villi, Creon with drug pre-treatment, Example 2; assay type: in vivo; details: for Mature epithelium: drug 0.01 mg/g b.wt per day, then water (no Creon)
# Protocol: (§1) In both of the following experiments 14-d-old pups were weighed and divided into groups and further to subgroups depending on the aim of each experiment. Pups were fed intragastrically via a feeding tube (0.96 mm outer diameter, PE50, Becton Dickinson, Sparks, Md., USA), in a volume 0.01 mL/g b.wt. The dose(s) for each pup was repeated once daily in corresponding manner for three days (14, 15, 16-d-old).
# (§2) At 17 days of age, all the pups were separated from their dams and then anesthetized by a subcutaneous injection of a mixture of Azaperone® (Stresnil; Janssen Pharmaceutica, Beerse, Belgium), 30 μg/g body weight (b.wt), and Ketamine® (Ketalar; Pfizer, New York, N.Y., USA), 170 μg/g b.wt. Once sure of anesthesia, the abdomen and thorax were then opened, euthanized via heart puncture. The small intestine was, after it was dissected out, length measured and then divided into two equally long proximal and distal parts, both of which were flashed with cold saline followed by a measurement of each one's weight. A 2 cm piece was collected from the midsection of the distal part and fixed in bouin's solution for 24 hr at room temperature for morphological changes measurements, while the rest parts of it were immediately frozen on dry ice and stored for functional analysis.
# All the samples from the distal SI were embedded into paraffin, cut laterally into […] thick sections, deparaffinated, and stained with hematoxylin and eosin according to standard procedures. All the samples were then imaged by using an Olympus PROVIS microscope (objective ×10) utilizing an Olympus DP50 camera (Olympus, Tokyo, Japan). Morphomertic analysis by measuring the ratio of the length of the adult-like epithelium to whole villi length was done by using ImageJ 1.36 program (National Institute of Health, Bethesda, Md.). […]
# 14-d-old rat pups [2] = assay: Small intestine length and weight, Creon with anti-inflammatory drug pre-treatment, Example 2; assay type: in vivo; details: for Small intestine Distal wt / Small intestine Length / Small intestine Proximal wt: drug 0.01 mg/g b.wt per day, then water (no Creon)
# Protocol: as §1, §2
# In order to compensate for individual variations in BW, the organ measurements are presented per g BW. All data are presented as mean values and standard deviations. Statistical comparisons between all groups were carried out using a one-way ANOVA analysis (SigmaStat 2.0; Jandel Scientific, San Rafael, Calif., USA) with all pairwise multiple-comparison procedures (Student Newman-Keuls method). Differences were considered to be significant when P<0.05.
# (§3) The 2nd exp. includes four litters; all pups (n=36) were randomly divided into two groups (Creon: 150 mg of capsule (lipase 10 000 USP, potease 37 500 USP, amylase 33 200 USP and water), the dose of Creon was 1.5 mg/g b.wt), then each group divided into subgroup pretreated one hour prior to enzyme feeding with anti-inflammatory drugs, Ibuprofen or Celecoxib (celecoxib; Pfizer, New York, N.Y., USA) the dose of drugs was 0.01 mg/g b.wt per day for both, diluted to give volume 0.01 mL/g b.wt. Thus six groups were obtained water/water, Ibupofen/water, Celecoxib/water, water/Creon, Ibuprofen/Creon and Celecoxib/Creon.
# 14-d-old rat pups [3] = assay: Disaccharidase activity in distal intestinal homogenates, Creon with drug pre-treatment, Example 2; assay type: in vivo; details: for Disaccharidase specific activity, Lactase / Disaccharidase specific activity, Maltase / Disaccharidase specific activity, Sucrase: drug alone, then water (no Creon), distal part
# Protocol: as §1, §2
# The distal part of the small intestine was homogenized in cold 0.9% NaCl (1:10 w/v). Then, the disaccharidase activities were measured by the Dahlqvist A method, by incubating the homogenates with the appropriate disaccharide for 1 h at 37° C., thereafter the liberated glucose was measured by using a glucose oxidase reagent (Sigma chemicals), as described in Dahlqvist, A, in 1984 (Assay of intestinal disaccharidases, Scand J Clin Lab Invest, 1984; 44: 169-172).
# The protein contents were determined by the method of Lowry et al (Lowry O H, Rosebrough N J, Farr A L & Randall R J Protein measurement with the Folin phenol reagent, J Biol Chem; 1951:193, 265-275.), modified for 96-well microplates as described in Pierzynowsk et al (Pierzynowsk S G, Westrom B R, Svendsen J & Karlsson B W. Development of exocrine pancreas function in chronically cannulated pigs during 1-13 weeks of postnatal life. J Pediatr Gastroenterol Nutr 1990; 10:206-212), and using serial dilutions of BSA (Sigma chemicals) as a standard.
# as §3
# [4] = cited from earlier work
# suckling rats [5] = assay: Set I: intestinal morphology of distal SI, Example 3; assay type: in vivo, Rattus norvegicus; details: distal part of SI, day 17
# Protocol: All samples collected for histology were fixed with Bouin's solution for 24 hours and then stored in 70% ethanol, dehydrated, embedded into the paraffin and then cut into sections with 5 μm thickness. The tissue sections were transferred onto the slides, rehydrated and stained with H&E according to the standard technique. After mounting under cover slips samples were examined using light microscopy to estimate ratio between total length of the villus and length of the adult type enterocytes using ImageJ program.
# suckling rats [6] = assay: Set I: brush-border disaccharidase activity in proximal SI, Example 3; assay type: in vivo, Rattus norvegicus; details: proximal part of SI, in words (FIG. 5)
# Protocol: The proximal samples of the SI were de-frozen and weighted and then homogenized with 9 parts of 0.9% NaCl (9 w/v). The homogenates (50 μl diluted samples) were incubated with the appropriate disaccharide (50 μl of 0.056M sucrose, maltose and lactose) for 1 hour at 37° C. After this, the liberated glucose was determined by adding glucose oxidase reagent (Sigma Chemicals), and incubated for 30 minutes. Then samples were transferred into the 96-well plate in triplication and the absorbance was measured at 450 nm. To measure the protein contents of the homogenates, Lowry method, was used, where BSA (Bovine Serum Albumin) was used as a standard. The results are presented as specific activity units per mg of protein (u/mg).
# suckling rats [7] = assay: Set I: body weight, GI and lymphoid organ weights, stomach pH after individual enzymes or mixture, Example 3; details: day 17; for Body weight / Cecum / Distal SI / Liver / Pancreas / Proximal SI / SI length / Spleen / Stomach / Thymus: 3 days treatment; for pH: stomach contents
# Protocol: All experiments were performed in young suckling rats by feeding them from 14 days of age via stomach tube for 3 continuous days (ones a day). One day after last treatment rats were euthanized and plasma and organs proceeded to study structural and functional changes of gastrointestinal system.
# The pups were kept with their dam until dissection day (day 17).
# In this set suckling pups were divided into five groups; control (water) amylase 10 000 USP/rat/day, lipase 4 000 USP/rat/day, protease 15 000 USP/rat/day, and mixture of these enzyme with corresponding activities per rat and day. This study was evaluating the effects of different pancreatic-like enzymes on the gut maturation and functioning and had 3 individual litters; n=12, n=10 and n=13, totally n=7 pups per each group. Each of the enzymes (Amylase, Protease and Lipase) (Sigma Aldrich) was available in the powder form and was resolved in distilled water prior to stomach feeding during days 14, 15 and 16. The volume of administered enzymes and distilled water (for control groups) was 0.01 ml/g BW. Each time, prior to the feeding procedure, the pups were weighed. […] Then 3 hours later, the pups were sedated with CO2 and anaesthetized by subcutaneous injection with a mixture of ketamine (Ketalar®, Pfizer, New York, USA, NaCl and azaperone (Stresnil®, Janssen Pharmaceutica, Beerse, Belgium), 0.01 ml/g BW. After opening the abdomen of the rats, 1 ml of blood was collected from heart by using syringes containing protease inhibitor and EDTA (50 μl) as anticoagulant and was transferred into ice-chilled tubes. After this, the pancreas was immediately dissected and rinsed with cold 0.9% NaCl, weighted and stored at −70 C. The SI was removed and its length was measured then divided into two halves, proximal and distal. Each segment was flushed out with cold 0.9% NaCl to clean the lumen and was then weighed separately. […] The stomach was removed and its content was collected into the tube (for measuring its pH) and frozen. Then cecum was dissected out, opened, rinse and weighed as well as liver and lymphoid organs spleen and thymus were dissected and weighted.
# The contents of the stomach were de-frozen and then resolved with 1 ml of cold 0.9% NaCl. After resolving, they were centrifuged and the pH was measured in the supernatant using pH-meter.
# All data are presented as mean±standard deviation (SD). Statistical comparisons between each group and control group were performed using the t-test. Results were considered as significant when P<0.05.
# suckling rats [8] = assay: Set I: plasma concentration of marker molecules BSA and BIgG (macromolecule absorption), Example 3; assay type: in vivo, Rattus norvegicus; details: 3 hours after marker feeding, day 17, in words (FIG. 6)
# Excerpt: The plasma level of marker molecules was quantified by using immunoassay rocket electrophoresis and SRI (single radial immunodiffusion) for plasma BSA and BIgG respectively.
# suckling rats [9] = assay: Papain vs microbial protease: macromolecule absorption (BSA, BIgG in plasma), Example 8; assay type: in vivo, Rattus norvegicus; details: in words (FIG. 14)
# Excerpt: (§4) The litter size for each dam was limited to 12 or 13 pups, to reduce variability.
# (§5) Suckling pups were divided into 3 groups depending on the treatments; microbial protease as a positive control, water as negative control and enzyme from papaya fruit (papain) (in total; protease=7, papain=8, control=7). The enzymes are available in the market in form of powders and were resolved in distilled water prior to stomach feeding during 14-16 d of age. The administered dose for each enzyme was 10000 USP/animal. The volume of administered enzymes and water (for control groups) was 0.01 ml/g b.wt. Prior to the feeding procedure, the pups were weighed. […] Three hours later, the pups were anaesthetized and organs were dissected out for analyses.
# young rats = assay: Growth of young rats treated with microbial amylase or lipase, Example 7; assay type: in vivo; details: 10 000 USP for amylase/rat, days 14-16, in words (FIG. 11)
# Protocol: This study was done to consider the effect of separated enzymes on body growth. The experiment is completing study done earlier to investigate effects of protease on body growth and was performed in similar mode (see experiment 3-5 above).
# Suckling pups were divided into 3 groups depending on the treatment; amylase, lipase and water (n=7 per group). The enzymes are available in the market in form of powders and were resolved in distilled water prior to stomach feeding during 14-16 d of age, ones a day. The administered dose for each single enzyme feeding was 4 000 USP for lipase/rat and 10 000 USP for amylase/rat. The control group received vehicle.
# suckling rats [10] = assay: Papain vs microbial protease: body and organ weight, Example 8; assay type: in vivo, Rattus norvegicus
# Excerpt: as §4, §5
# suckling rats [11] = assay: Papain vs microbial protease: intestinal disaccharidase activity in proximal SI, Example 8; assay type: in vivo, Rattus norvegicus; details: proximal part of SI, in words (FIG. 13)
# Excerpt: as §4, §5
# The activities of the brush-border enzymes lactase, maltase and sucrase were analyzed in the proximal part of the SI in groups treated with papain and protease.
# [12] = drug one hour prior to Creon, in words
# [13] = 10000 USP/animal, days 14-16, day 17
molecule,measurement,setting,value
"Cc1ccc(-c2cc(C(F)(F)F)nn2-c2ccc(S(N)(=O)=O)cc2)cc1 [Celexosib, Celecoxib]",Mature epithelium,14-d-old rat pups [1],7.98^A %
same,Small intestine Distal wt,14-d-old rat pups [2],14.45 ^A mg/g bwt
same,Small intestine Length,14-d-old rat pups [2],1.64 cm/g bwt
same,Small intestine Proximal wt,14-d-old rat pups [2],16.32 ^A mg/g bwt
same,"Disaccharidase specific activity, Lactase",14-d-old rat pups [3],100.91 U/mg
same,"Disaccharidase specific activity, Maltase",14-d-old rat pups [3],72.24 ^A U/mg
same,"Disaccharidase specific activity, Sucrase",14-d-old rat pups [3],1.28 ^A U/mg
same,half life,[4],12 h
CC(C)Cc1ccc(C(C)C(=O)O)cc1 (centres unmarked) [Ibuprofen],Mature epithelium,14-d-old rat pups [1],8.78^A %
same,effect of drug pre-treatment on mature cells (morphometric analysis) under Creon,14-d-old rat pups [1]; [12],unaffected
same,Small intestine Distal wt,14-d-old rat pups [2],13.81 ^A mg/g bwt
same,Small intestine Length,14-d-old rat pups [2],1.60 cm/g bwt
same,Small intestine Proximal wt,14-d-old rat pups [2],16.24 ^A mg/g bwt
same,effect of drug pre-treatment on the effect of Creon on intestinal weight and length,14-d-old rat pups [2]; [12],could not be cancelled
same,"Disaccharidase specific activity, Lactase",14-d-old rat pups [3],114.17 U/mg
same,"Disaccharidase specific activity, Maltase",14-d-old rat pups [3],82.75 ^A U/mg
same,"Disaccharidase specific activity, Sucrase",14-d-old rat pups [3],1.12 ^A U/mg
same,effect of drug pre-treatment on disaccharidases activities under Creon,14-d-old rat pups [3]; [12],unaffected
Lipase from B. cepacia,foetal-type epithelium with vacuolated enterocytes along the villi,suckling rats [5],77%
same,lactase activity,suckling rats [6],higher
same,maltase activity,suckling rats [6],stayed in a lower level
same,sucrase activity,suckling rats [6],stayed in a lower level
same,Body weight,suckling rats [7],36.8 ± 2.2 gr
same,Cecum,suckling rats [7],2.4 ± 0.4 mg/g BW
same,Distal SI,suckling rats [7],15.2 ± 0.9 mg/g BW
same,Liver,suckling rats [7],34.5 ± 1.8 mg/g BW
same,Pancreas,suckling rats [7],3.7 ± 0.5 mg/g BW
same,Proximal SI,suckling rats [7],17.5 ± 1.7 mg/g BW
same,SI length,suckling rats [7],1.5 ± 0.1 cm/g BW
same,Spleen,suckling rats [7],3.5 ± 0.4 mg/g BW
same,Stomach,suckling rats [7],6.9 ± 0.8 mg/g BW
same,Thymus,suckling rats [7],4.9 ± 0.8 mg/g BW
same,pH,suckling rats [7],4.0 ± 0.3
same,uptake of marker molecule BIgG to plasma,suckling rats [8],remained in a higher level
same,uptake of marker molecule BSA to plasma,suckling rats [8],remained in a higher level
bromelain,intestinal macromolecular absorptive capacity,suckling rats [9],remained in a higher level
α-Amylase from Aspergillus oryzae,growth of young rats in comparison to lipase and control group,young rats,clear effect of amylase to stimulate growth
same,foetal-type epithelium with vacuolated enterocytes along the villi,suckling rats [5],77%
same,lactase activity,suckling rats [6],higher
same,maltase activity,suckling rats [6],stayed in a lower level
same,sucrase activity,suckling rats [6],stayed in a lower level
same,Body weight,suckling rats [7],37.2 ± 2.3 gr
same,Cecum,suckling rats [7],2.5 ± 0.3 mg/g BW
same,Distal SI,suckling rats [7],15.2 ± 2.3 mg/g BW
same,Liver,suckling rats [7],33.7 ± 1.3 mg/g BW
same,Pancreas,suckling rats [7],3.5 ± 0.4 mg/g BW
same,Proximal SI,suckling rats [7],16.6 ± 1.9 mg/g BW
same,SI length,suckling rats [7],1.5 ± 0.0 cm/g BW
same,Spleen,suckling rats [7],3.6 ± 0.7 mg/g BW
same,Stomach,suckling rats [7],6.8 ± 0.4 mg/g BW
same,Thymus,suckling rats [7],5.1 ± 0.2 mg/g BW
same,pH,suckling rats [7],4.0 ± 0.2
same,uptake of marker molecule BIgG to plasma,suckling rats [8],remained in a higher level
same,uptake of marker molecule BSA to plasma,suckling rats [8],remained in a higher level
B1,weight of distal part of SI,suckling rats [10]; in words,increased weight
same,intestinal macromolecular absorptive capacity,suckling rats [9],remained in a higher level
B2,Body weight,suckling rats [10]; [13],33.2 ± 5.00 gr
same,Cecum,suckling rats [10]; [13],3.42 ± 0.45 mg/g BW
same,Distal SI,suckling rats [10]; [13],17.8 ± 2.5 mg/g BW
same,Liver,suckling rats [10]; [13],33.33 ± 1.52 mg/g BW
same,Pncrease,suckling rats [10]; [13],4.07 ± 0.46 mg/g BW
same,Proxima SI,suckling rats [10]; [13],21.49 ± 1.57 mg/g BW
same,SI length,suckling rats [10]; [13],1.72 ± 0.17 cm/g BW
same,Spleen,suckling rats [10]; [13],3.46 ± 0.44 mg/g BW
same,Stomach,suckling rats [10]; [13],7.13 ± 0.45 mg/g BW
same,Thymus,suckling rats [10]; [13],4.65 ± 0.92 mg/g BW
same,effect on body growth,"suckling rats [10]; dose 10 000 USP, days 14 to 17, in words (FIG. 12)",No effect
same,activity of maltase compared to control,suckling rats [11],significantly increased
same,activity of sucrase compared to control,suckling rats [11],significantly increased
same,BSA concentration in rat plasma,"suckling rats [9]; day 17, 3 hours after feeding",significantly decreased
same,"uptake of macromolecules, BIgG absorption","suckling rats [9]; day 17, 3 hours after feeding",significantly lower
